For 17 compounds, IC50 results are on record in patent US7713994B2 (Wyeth LLC, priority 2005, dated 2010).

One experiment relates to HCT-116. Description: Cytotoxicity assay (SRB), HCT-116. Particulars: Homo sapiens, HCT-116, 72 h, HCT116 cells, SRB, three days; read-out: In Vitro Cellular Activity IC50 HCT116. Format: cell-based. The method in brief: (§1)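 Percentage survival is derived from SRB absorbance (540 nm) versus untreated cells. Exposures were 3 days, except 6 days for BT474, at 37 °C and 7% CO2.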

The target of another experiment is T1, cyclin B/CDK1 enzyme (Homo sapiens, UniProt P06493).
T1 construct: purchased New England BioLabs; host or cells: Sf9 insect cells, recombinant baculovirus
T1 sequence (P06493 whole entry): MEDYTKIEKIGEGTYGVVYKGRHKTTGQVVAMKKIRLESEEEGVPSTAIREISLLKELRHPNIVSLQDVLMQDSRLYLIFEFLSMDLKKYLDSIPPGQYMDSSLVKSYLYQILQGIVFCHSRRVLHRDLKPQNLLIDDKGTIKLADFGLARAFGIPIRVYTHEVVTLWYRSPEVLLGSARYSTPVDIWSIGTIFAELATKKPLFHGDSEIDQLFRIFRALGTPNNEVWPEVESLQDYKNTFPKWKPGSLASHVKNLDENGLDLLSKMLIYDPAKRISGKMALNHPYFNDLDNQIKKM
T1 sequence (P14635 whole entry partner): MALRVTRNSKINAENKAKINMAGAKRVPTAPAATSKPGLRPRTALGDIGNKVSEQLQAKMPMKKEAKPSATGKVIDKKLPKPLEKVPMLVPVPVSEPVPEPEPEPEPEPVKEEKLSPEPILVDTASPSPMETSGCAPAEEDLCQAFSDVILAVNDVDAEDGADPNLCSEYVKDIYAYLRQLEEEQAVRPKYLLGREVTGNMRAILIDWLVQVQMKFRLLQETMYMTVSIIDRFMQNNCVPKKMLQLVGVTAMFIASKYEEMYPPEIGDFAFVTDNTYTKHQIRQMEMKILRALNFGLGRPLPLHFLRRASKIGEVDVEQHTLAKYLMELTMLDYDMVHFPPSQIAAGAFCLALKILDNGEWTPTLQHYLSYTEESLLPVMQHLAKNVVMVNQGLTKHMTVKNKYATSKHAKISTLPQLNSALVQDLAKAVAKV
The experiment in a line: CDK1 ELISA kinase assay (phospho-Rb ser 795 detection). Format: biochemical. The conditions noted are these: In Vitro Enzyme Assays, read-out: CDK1 IC50. The method, boiled down: (§2)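 Screening was done at 10 ug/ml compound. Each partially purified cyclin/CDK complex, produced in baculovirus-infected Sf9 cells, phosphorylated a coated GST-Rb C-terminal fragment with 200 μM ATP, and Ser795 phosphorylation was quantified by HRP-ELISA at 450 nm.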

The subject of another experiment is MCF-7. The experiment in a line: Cytotoxicity assay (SRB), MCF-7. The class given is cell-based. The conditions noted are these: Homo sapiens, MCF7, 72 h, MCF-7 cells, SRB, three days; read-out: In Vitro Cellular Activity IC50 MCF-7. The method, boiled down: as §1
In another experiment the test system is LoVo. Description: Cytotoxicity assay (SRB), LoVo. Particulars: Homo sapiens, LoVo, 72 h, LoVo cells, SRB, three days; read-out: In Vitro Cellular Activity IC50 LOVO. The class given is cell-based. The method in brief: as §1
For the next experiment, the target named is T2, cyclin E/CDK2 enzyme (Homo sapiens, UniProt P24941).
T2 construct: made in house; host or cells: Sf9 insect cells, recombinant baculovirus
Description: CDK2 ELISA kinase assay (phospho-Rb ser 795 detection). Format: biochemical. Particulars: In Vitro Enzyme Assays, read-out: CDK2 IC50. The method in brief:
as §2

The test system of another experiment is BT474. The experiment in a line: Cytotoxicity assay (SRB), BT474. Particulars: Homo sapiens, BT-474, 144 h, BT474 cells, SRB, 6 days; read-out: In Vitro Cellular Activity IC50 BT474. The class given is cell-based. The method, boiled down: as §1
In the next experiment the target is T3, cyclin D1/cdk 4 enzyme (Homo sapiens, UniProt P11802).
T3 construct: made in house; host or cells: Sf9 insect cells, recombinant baculovirus
T3 sequence (P11802 whole entry, species assumed): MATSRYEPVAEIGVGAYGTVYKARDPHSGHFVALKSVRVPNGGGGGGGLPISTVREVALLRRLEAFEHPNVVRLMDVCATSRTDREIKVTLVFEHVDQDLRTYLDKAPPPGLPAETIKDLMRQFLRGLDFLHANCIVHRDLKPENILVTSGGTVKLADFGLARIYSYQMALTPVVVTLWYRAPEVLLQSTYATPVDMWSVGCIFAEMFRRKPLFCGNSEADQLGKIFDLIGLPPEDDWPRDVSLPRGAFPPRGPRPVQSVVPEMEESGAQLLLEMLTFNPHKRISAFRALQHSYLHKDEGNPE
T3 sequence (P24385 whole entry partner, species assumed): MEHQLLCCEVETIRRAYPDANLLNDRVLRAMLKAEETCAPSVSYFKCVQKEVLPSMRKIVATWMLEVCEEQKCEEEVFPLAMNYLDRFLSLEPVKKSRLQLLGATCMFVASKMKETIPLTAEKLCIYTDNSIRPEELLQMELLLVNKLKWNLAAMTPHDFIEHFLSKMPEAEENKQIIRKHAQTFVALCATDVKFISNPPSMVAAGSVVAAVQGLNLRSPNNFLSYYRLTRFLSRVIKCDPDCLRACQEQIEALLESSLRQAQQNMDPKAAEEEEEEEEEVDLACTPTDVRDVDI
The experiment in a line: CDK4 ELISA kinase assay (phospho-Rb ser 795 detection). The class given is biochemical. Particulars: In Vitro Enzyme Assays, 200 μM ATP, read-out: CDK4 IC50. The method, boiled down: as §2

For `O=C1NC(=O)c2ccc(Br)cc2/C1=C/Nc1ccc2c(c1)CCN2` [Example 214, (4Z)-6-Bromo-4-[(2,3-dihydro-1H-indol-5-ylamino)methylene]isoquinoline-1,3(2H,4H)-dione], the IC50 was 39 µM in the experiment with HCT-116; more than 50 µM on cyclin B/CDK1 enzyme; 14 µM in the experiment with MCF-7; more than 50 µM with LoVo; 6.3 µM at cyclin E/CDK2 enzyme; 6.8 µM with BT474. For the same compound, the IC50 on cyclin D1/cdk 4 enzyme is 17.6 µM.
`COc1cc(CN/C=C2\C(=O)NC(=O)c3ccc(Br)cc32)ccn1` [Example 222, (4Z)-6-Bromo-4-({[(2-methoxypyridin-4-yl)methyl]amino}methylene)isoquinoline-1,3(2H,4H)-dione]: the IC50 was 14 µM with HCT-116; more than 50 µM at cyclin B/CDK1 enzyme; 13 µM with MCF-7; 19 µM with LoVo; 6.1 µM on cyclin E/CDK2 enzyme; 13 µM in the experiment on BT474. For the same compound, at cyclin D1/cdk 4 enzyme, the IC50 was found to be 31.7 µM.
For the compound `CC1(C)Oc2cc(CN/C=C3\C(=O)NC(=O)c4ccc(Br)cc43)cc(O)c2O1` [Example 224, (4Z)-6-Bromo-4-({[(7-hydroxy-2,2-dimethyl-1,3-benzodioxol-5-yl)methyl]amino}methylene)isoquinoline-1,3(2H,4H)-dione], the IC50 with HCT-116 amounted to 6.4 µM; at cyclin B/CDK1 enzyme, 45.5 µM; with MCF-7 it was 7.4 µM; in the experiment on LoVo, 7.9 µM; at cyclin E/CDK2 enzyme it was 4 µM; with BT474, 9.6 µM. For the same compound, the IC50 at cyclin D1/cdk 4 enzyme turned out to be 0.17 µM.
Turning to `O=C1NC(=O)c2ccc(Br)cc2/C1=C/NCc1cc[nH]c(=O)c1` [Example 225, (4Z)-6-Bromo-4-({[(2-oxo-1,2-dihydropyridin-4-yl)methyl]amino}methylene)isoquinoline-1,3(2H,4H)-dione], the IC50 in the experiment with HCT-116 is more than 50 µM; at cyclin B/CDK1 enzyme, more than 50 µM; in the experiment on MCF-7, more than 50 µM; with LoVo, more than 50 µM; on cyclin E/CDK2 enzyme, 2.7 µM; in the experiment on BT474, 19.5 µM. Further, the IC50 at cyclin D1/cdk 4 enzyme is 0.56 µM.
In the case of `CN(C)CCSc1ccc(N/C=C2\C(=O)NC(=O)c3ccc(Br)cc32)cc1` [Example 229, (4Z)-6-Bromo-4-{[(4-{[2-(dimethylamino)ethyl]thio}phenyl)amino]methylene}isoquinoline-1,3(2H,4H)-dione], the IC50 is 3.6 µM in the experiment on HCT-116; more than 50 µM at cyclin B/CDK1 enzyme; 4.6 µM in the experiment with MCF-7; 8.5 µM with LoVo; more than 50 µM at cyclin E/CDK2 enzyme; 4 µM in the experiment on BT474. Further, the IC50 at cyclin D1/cdk 4 enzyme amounted to 0.24 µM.
As for `CN(C)CCN(C)c1ccc(N/C=C2\C(=O)NC(=O)c3ccc(Br)cc32)cc1` [Example 231, (4Z)-6-Bromo-4-[({4-[[2-(dimethylamino)ethyl](methyl)amino]phenyl}amino)methylene]isoquinoline-1,3(2H,4H)-dione], the IC50 with HCT-116 was 4.1 µM; at cyclin B/CDK1 enzyme, 29.6 µM; in the experiment with MCF-7 it was 2.4 µM; in the experiment with LoVo, 10 µM; on cyclin E/CDK2 enzyme, more than 50 µM; in the experiment with BT474, 8.3 µM. Besides, the concentration for half-maximal inhibition (IC50) on cyclin D1/cdk 4 enzyme is 3.6 µM.
`CN1CCCN(c2ccc(N/C=C3\C(=O)NC(=O)c4ccc(Br)cc43)cc2)CC1` [Example 232, (4Z)-6-Bromo-4-({[4-(4-methyl-1,4-diazepan-1-yl)phenyl]amino}methylene)isoquinoline-1,3(2H,4H)-dione]: the half-inhibitory concentration (IC50) with HCT-116 is 1.4 µM; on cyclin B/CDK1 enzyme, more than 50 µM; in the experiment with MCF-7, 2.1 µM; in the experiment with LoVo, 3.7 µM; on cyclin E/CDK2 enzyme, more than 50 µM; with BT474, 3.3 µM. The IC50 at cyclin D1/cdk 4 enzyme was determined as 2.7 µM.
As for `CN1CCN(c2ccc(N/C=C3\C(=O)NC(=O)c4ccc(-c5ccoc5)cc43)cc2)CC1` [Example 236, (4Z)-6-(3-Furyl)-4-({[4-(4-methylpiperazin-1-yl)phenyl]amino}methylene)isoquinoline-1,3(2H,4H)-dione], the IC50 with HCT-116 is 1.2 µM; at cyclin B/CDK1 enzyme it was more than 50 µM; in the experiment with MCF-7, 1.1 µM; in the experiment with LoVo it was 2.2 µM; at cyclin E/CDK2 enzyme it was more than 50 µM; with BT474, 1 µM. Moreover, the IC50 on cyclin D1/cdk 4 enzyme was determined as 0.22 µM.
Take `CN(C)CCS(=O)(=O)c1ccc(N/C=C2\C(=O)NC(=O)c3ccc(Br)cc32)cc1` [Example 243]: the IC50 in the experiment on HCT-116 was 5 µM; at cyclin B/CDK1 enzyme, 12.3 µM; with MCF-7 it was 5 µM; with LoVo, 12 µM; at cyclin E/CDK2 enzyme it was 1.9 µM; in the experiment with BT474, 13 µM. In addition, the half-inhibitory concentration (IC50) at cyclin D1/cdk 4 enzyme came to 1.2 µM.
On to `CN(CCO)c1ccc(N/C=C2\C(=O)NC(=O)c3ccc(Br)cc32)cc1` [Example 244, (4Z)-6-Bromo-4-[({4-[(2-hydroxyethyl)(methyl)amino]phenyl}amino)methylene]isoquinoline-1,3(2H,4H)-dione], for which the IC50 in the experiment on HCT-116 was 4.9 µM; on cyclin B/CDK1 enzyme, more than 50 µM; in the experiment with MCF-7, 19 µM; in the experiment on LoVo it was 15 µM; on cyclin E/CDK2 enzyme, more than 50 µM; in the experiment on BT474, 9.4 µM. The IC50 on cyclin D1/cdk 4 enzyme was 45.5 µM.
Consider `CN1CCC(N(C)c2ccc(N/C=C3\C(=O)NC(=O)c4ccc(Br)cc43)cc2)C1` (centres unmarked) [Example 245, (4Z)-6-Bromo-4-[({4-[methyl(1-methylpyrrolidin-3-yl)amino]phenyl}amino)methylene]isoquinoline-1,3(2H,4H)-dione], for which the IC50 is 3.4 µM in the experiment on HCT-116; more than 50 µM on cyclin B/CDK1 enzyme; 3 µM in the experiment on MCF-7; 6.6 µM with LoVo; more than 50 µM on cyclin E/CDK2 enzyme; 8.4 µM in the experiment on BT474. Besides, the IC50 at cyclin D1/cdk 4 enzyme stood at 2 µM.
As for `CN(CCN1CCCC1)c1ccc(N/C=C2\C(=O)NC(=O)c3ccc(Br)cc32)cc1` [Example 255, (4Z)-6-Bromo-4-[({4-[methyl(2-pyrrolidin-1-ylethyl)amino]phenyl}amino)methylene]isoquinoline-1,3(2H,4H)-dione], the IC50 was 3.1 µM in the experiment with HCT-116; more than 50 µM on cyclin B/CDK1 enzyme; 3.6 µM with MCF-7; 3.8 µM in the experiment on LoVo; more than 50 µM on cyclin E/CDK2 enzyme; 7.9 µM in the experiment with BT474. In addition, the IC50 on cyclin D1/cdk 4 enzyme came to 2.5 µM.
`CN(CCN1CCCCC1)c1ccc(N/C=C2\C(=O)NC(=O)c3ccc(Br)cc32)cc1` [Example 256, (4Z)-6-Bromo-4-[({4-[methyl(2-piperidin-1-ylethyl)amino]phenyl}amino)methylene]isoquinoline-1,3(2H,4H)-dione]: the IC50 is 3.1 µM with HCT-116; more than 50 µM on cyclin B/CDK1 enzyme; 5.3 µM with MCF-7; 3.6 µM with LoVo; more than 50 µM on cyclin E/CDK2 enzyme; 7.5 µM with BT474. In addition, the IC50 at cyclin D1/cdk 4 enzyme was determined as 4.3 µM.
As to `CN(C)CCOc1ccc(N/C=C2\C(=O)NC(=O)c3ccc(Br)cc32)cc1` [Example 258, (4Z)-6-Bromo-4-[({4-[2-(dimethylamino)ethoxy]phenyl}amino)methylene]isoquinoline-1,3(2H,4H)-dione], the IC50 in the experiment with HCT-116 was 3.5 µM; on cyclin B/CDK1 enzyme, more than 50 µM; with MCF-7 it was 6.7 µM; with LoVo, 5.3 µM; on cyclin E/CDK2 enzyme it was more than 50 µM; in the experiment with BT474, 8.3 µM. At cyclin D1/cdk 4 enzyme, the IC50 was 0.48 µM.
Consider `CN1Cc2ccc(N/C=C3\C(=O)NC(=O)c4ccc(Br)cc43)cc2C1` [Example 259, (4Z)-6-Bromo-4-{[(2-methyl-2,3-dihydro-1H-isoindol-5-yl)amino]methylene}isoquinoline-1,3(2H,4H)-dione], for which the IC50 in the experiment with HCT-116 is 2.5 µM; at cyclin B/CDK1 enzyme it was 20.7 µM; in the experiment with MCF-7, 5.5 µM; in the experiment with LoVo, 3.9 µM; at cyclin E/CDK2 enzyme, 2.5 µM; with BT474, 6.8 µM. Further, at cyclin D1/cdk 4 enzyme, the IC50 came to 1.2 µM.
`O=C1NC(=O)c2ccc(Br)cc2/C1=C/Nc1ccc(-n2ccnc2)cc1` [Example 260, (4Z)-6-Bromo-4-({[4-(1H-imidazol-1-yl)phenyl]amino}methylene)isoquinoline-1,3(2H,4H)-dione]: the half-maximal inhibitory concentration (IC50) in the experiment with HCT-116 was 5.4 µM; on cyclin B/CDK1 enzyme, more than 50 µM; in the experiment on MCF-7, more than 50 µM; with LoVo, more than 50 µM; on cyclin E/CDK2 enzyme, 14.7 µM; in the experiment on BT474, more than 50 µM. The IC50 on cyclin D1/cdk 4 enzyme was 22.6 µM.
Consider `CN1CCN(c2ccc(N/C=C3\C(=O)NC(=O)c4ccc(-c5ccc(F)cc5)cc43)cc2)CC1` [Example 263, (4Z)-6-(4-Fluorophenyl)-4-({[4-(4-methylpiperazin-1-yl)phenyl]amino}methylene)-isoquinoline-1,3(2H,4H)-dione], for which the half-inhibitory concentration (IC50) is 1.3 µM in the experiment with HCT-116; more than 50 µM at cyclin B/CDK1 enzyme; 3.1 µM in the experiment with MCF-7; 2.9 µM in the experiment on LoVo; more than 50 µM at cyclin E/CDK2 enzyme; 2.9 µM in the experiment on BT474. The IC50 on cyclin D1/cdk 4 enzyme was determined as 0.5 µM.
